# Reference: patent US9572813B2, “Antiviral agent” (SHIONOGI & CO., LTD., priority 2001, dated 2017)
# Where a name gives a salt, the structure may show the parent alone.
row,melting point,Compound
1,158 to 160 °C,CN1CC(C(=O)c2coc(Cc3ccc(F)cc3)c2)=C(O)C1=O
2,123 to 124 °C,COc1ccccc1Cc1ccc(C(=O)C2=C(O)C(=O)N(C(C)C)C2)o1
3,165 to 166.5 °C,CC(C)N1CC(C(=O)c2ccc(Cc3cccc4ccccc34)o2)=C(O)C1=O
4,98 to 99 °C,CC(C)Oc1cccc(Cc2ccc(C(=O)C3=C(O)C(=O)N(C(C)C)C3)o2)c1
5,112 to 113 °C,COc1cc(F)ccc1Cc1ccc(C(=O)C2=C(O)C(=O)N(C(C)C)C2)o1
6,98 to 100 °C,CC(C)Oc1cc(F)ccc1Cc1ccc(C(=O)C2=C(O)C(=O)N(C(C)C)C2)o1
7,215 to 218 °C,CC(C)N1CC(C(=O)c2ccc(Cc3ccc(F)cc3C(N)=O)o2)=C(O)C1=O
8,154 to 157 °C,CCN1CC(C(=O)c2oc(S(C)(=O)=O)cc2Cc2ccc(F)cc2)=C(O)C1=O
9,105 to 106 °C,COCCN1CC(C(=O)c2ccc(Cc3ccc(F)cc3)o2)=C(O)C1=O
10,200 to 203 °C,CN1CC(C(=O)c2oc(C3CCS(=O)(=O)CC3)cc2Cc2ccc(F)cc2)=C(O)C1=O
11,209 to 211 °C (dec.),CN1CC(C(=O)c2oc(C(=O)N3CCOCC3)cc2Cc2ccc(F)cc2)=C(O)C1=O
12,169 to 170 °C,CCNC(=O)c1cc(C(=O)C2=C(O)C(=O)N(C)C2)oc1Cc1ccc(F)cc1
13,157 to 159 °C,O=C(C1=C(O)C(=O)N(C2CCCC2)C1)c1ccc(Cc2ccc(F)cc2)o1
14,172 °C,CC(O)CN1CC(C(=O)c2ccc(Cc3ccc(F)cc3)o2)=C(O)C1=O (stereo not drawn)
15,119 to 120 °C,O=C(C1=C(O)C(=O)N(CC(O)CO)C1)c1ccc(Cc2ccc(F)cc2)o1 (stereo not drawn)
16,178 to 179 °C,O=C1NCC(C(=O)c2ccc(Cc3ccc(F)cc3)o2)=C1O
17,228 to 232 °C (dec.),O=C(C1=C(O)C(=O)N(CCN2CCCCC2)C1)c1ccc(Cc2ccc(F)cc2)o1
18,230 to 231 °C,CN1CC(C(=O)c2ncc(Cc3ccc(F)cc3)s2)=C(O)C1=O
19,197 to 199 °C,CC(C)N1CC(C(=O)c2occc2Cc2ccc(F)cc2)=C(O)C1=O
20,167 °C,CCN1CC(C(=O)c2occc2Cc2ccc(F)cc2)=C(O)C1=O
21,125 to 127 °C,Cc1cc(Cc2ccc(F)cc2)c(C(=O)C2=C(O)C(=O)N(C(C)C)C2)o1
22,202 to 204 °C,Cc1oc(C(=O)C2=C(O)C(=O)N(C)C2)c(Cc2ccc(F)cc2)c1C
23,141 to 143 °C,CCN1CC(C(=O)c2oc(C(C)(C)C)cc2Cc2ccc(F)cc2)=C(O)C1=O
24,146 to 147 °C,CC(C)N1CC(C(=O)c2oc(C(C)(C)C)cc2Cc2ccc(F)cc2)=C(O)C1=O

row,melting point,Compound
1,181 to 183 °C,CN1CC(C(=O)c2sccc2Cc2ccc(F)cc2)=C(O)C1=O
2,170 °C,Cc1nc(C(=O)C2=C(O)C(=O)N(C)C2)c(Cc2ccc(F)cc2)o1
3,220 °C,CC(C)N1CC(C(=O)c2c[nH]c(Cc3ccc(F)cc3)n2)=C(O)C1=O
4,224 to 226 °C,CC(C)N1CC(C(=O)c2cn(Cc3ccc(F)cc3)cn2)=C(O)C1=O
5,156 to 159 °C,CC(C)N1CC(C(=O)c2cncn2Cc2ccc(F)cc2)=C(O)C1=O
6,150 to 151 °C,CN1CC(C(=O)c2cccn2Cc2ccc(F)cc2)=C(O)C1=O
7,207 to 209 °C,CC(C)N1CC(c2cnc(Cc3ccc(F)cc3)cn2)=C(O)C1=O
8,169 to 171 °C,CN1CC(c2ncnc(OCc3ccc(F)cc3)n2)=C(O)C1=O
9,105 to 106 °C,CC(C)N1CC(c2ncnc(OCc3ccc(F)cc3)n2)=C(O)C1=O
10,208 to 210 °C,CC(C)N1CC(c2ncc(CCc3ccc(F)cc3)s2)=C(O)C1=O
11,177 to 178 °C,CC(C)N1CC(c2cc(OCc3ccccc3)ncn2)=C(O)C1=O
12,225 to 228 °C,CC(C)N1CC(c2cc(CCc3ccc(F)cc3)ncn2)=C(O)C1=O
13,162 to 164 °C,CN1CC(c2cc(C(Cc3ccc(F)cc3)Cc3ccc(F)cc3)ncn2)=C(O)C1=O
14,229 to 230 °C,CN1CC(c2ccc(Oc3ccc(F)cc3)cn2)=C(O)C1=O
15,164 to 166 °C,COc1ccc(CN2CC(c3ccc(Cc4ccc(F)cc4)cn3)=C(O)C2=O)cc1
16,167 to 168 °C,CN1CC(c2cc(CCc3ccc(F)cc3)ccn2)=C(O)C1=O
17,167 to 168 °C,CC(C)N1CC(c2cc(CCc3ccc(F)cc3)ccn2)=C(O)C1=O
18,210 to 211 °C,CN1CC(c2ccc(OCc3ccc(F)cc3)cn2)=C(O)C1=O
19,205 to 207 °C,CC(C)N1CC(c2ccc([S+]([O-])c3ccc(F)cc3)cn2)=C(O)C1=O (stereo not drawn)
20,155 to 157 °C,CC(C)N1CC(c2ncc(Cc3ccc(F)cc3)cn2)=C(O)C1=O
21,165 to 166 °C,CC(C)N1CC(c2ncc(Oc3ccc(F)cc3)cn2)=C(O)C1=O
22,229 to 231 °C,CC(C)N1CC(c2cc(CCc3ccccc3)ncn2)=C(O)C1=O
23,222 to 223 °C,O=C1C(O)=C(c2cc(CCc3ccccc3)ncn2)CN1Cc1ccccc1
24,199 to 200 °C,CC(C)(C)N1CC(c2cc(CCc3ccccc3)ncn2)=C(O)C1=O

row,melting point,Compound
1,155 to 157 °C,CC(C)N1CC(c2nccc(OCc3ccccc3)n2)=C(O)C1=O
2,227 to 230 °C,CN1CC(c2nccc(OCc3ccc(F)cc3)n2)=C(O)C1=O
3,148 to 149 °C,CC(C)N1CC(c2nccc(OCc3ccc(F)cc3)n2)=C(O)C1=O
4,158 to 160 °C,CN1CC(c2ncc(CCc3ccc(F)cc3)cn2)=C(O)C1=O
5,126 to 127 °C,CC(C)N1CC(c2nccc(CCc3ccccc3)n2)=C(O)C1=O
6,182 to 184 °C,CC(C)N1CC(c2cc(CCc3ccccc3)cnn2)=C(O)C1=O
7,216 to 217 °C,CC(C)N1CC(c2cnc(Oc3ccccc3)cn2)=C(O)C1=O
8,237 to 238 °C,CN1CC(c2cnc(Oc3ccc(F)cc3)cn2)=C(O)C1=O
9,227 to 229 °C,CC(C)N1CC(c2cnc(Oc3ccc(F)cc3)cn2)=C(O)C1=O
10,289 to 292 °C,Cc1nc(-c2oc3cccc(OCc4ccc(F)cc4)c3c(=O)c2O)n[nH]1
11,212 °C,O=c1c(O)c(-c2ncc(Oc3ccccc3)cn2)oc2ccccc12
12,227 to 229 °C,CN(C)C(=O)c1cc(OCc2ccc(F)cc2)c2c(=O)c(O)c(-c3ncnn3C)oc2c1
13,253 to 255 °C,COC(=O)c1cc(OCc2ccc(F)cc2)c2c(=O)c(O)c(-c3ncnn3C)oc2c1
14,280 to 282 °C,Cn1ncnc1-c1oc2cc(C(=O)O)cc(OCc3ccc(F)cc3)c2c(=O)c1O
15,220 to 223 °C,Cn1ncnc1-c1oc2c(Br)ccc(OCc3ccc(F)cc3)c2c(=O)c1O
16,257 to 258 °C,Cn1ncnc1-c1oc2cc(C(N)=O)cc(OCc3ccc(F)cc3)c2c(=O)c1O
17,220 to 221 °C,COCNC(=O)c1cc(OCc2ccc(F)cc2)c2c(=O)c(O)c(-c3ncnn3C)oc2c1
18,246 to 247 °C,CN(C)C(=O)c1ccc(OCc2ccc(F)cc2)c2c(=O)c(O)c(-c3ncnn3C)oc12
19,215 to 217 °C,Cn1ncnc1-c1oc2cccc(OCCc3ccc(F)cc3)c2c(=O)c1O
20,177 to 179 °C,COCCNC(=O)c1cc(=O)c(O)c(C(=O)c2ccc(Cc3ccc(F)cc3)o2)o1
21,191 to 192 °C,O=C(c1ccc(Cc2ccc(F)cc2)o1)c1occ(Br)c(=O)c1O
22,128 to 130 °C,COCn1ccc(C(=O)c2ccc(Cc3ccc(F)cc3)o2)c(O)c1=O
23,229 to 231 °C,O=C(c1ccc(Cc2ccc(F)cc2)o1)c1cc[nH]c(=O)c1O
24,257 °C,CN1CC(C(=O)c2ncoc2Cc2ccc(F)cc2)=C(O)C1=O (as salt: salt)
